Test: Drug release assay (hydrolysis rate test in pH 7.4 / pH 2.0 buffer, HPLC)
Type: physicochemical
Details: for Hydrolysis constant Kh pH 2.0 / Hydrolysis constant Kh pH 7.4: Kh=-ln[100%-Release rate (%)]/t; for Release rate (%) pH 2.0 (6 h): pH 2.0 buffer solution; for Release rate (%) pH 2.0 (6 h) / Release rate (%) pH 7.4 (0.5 h) / Release rate (%) pH 7.4 (6 h): 37° C., 200 rpm, residual content relative to 0 h by HPLC; for Release rate (%) pH 7.4 (0.5 h) / Release rate (%) pH 7.4 (6 h): pH 7.4 buffer solution
Procedure: Preparation of pH2.0 Buffer Solution
Preparation of pH7.4 Buffer Solution
Method of Hydrolysis Rate Test
The compounds were dissolved in pH7.4/pH2.0 buffer solution, placed in a constant temperature shaker at 37° C. and 200 rpm, and sampled at 0 h, 0.5 h and 6 h respectively. The residual contents of the compounds relative to 0 h were tested at each time point.
The release rates (%) were calculated using the following equation: Release rate (%)=[A(0h)−A(xh)]/A(0h)×100%, (x=0, 0.5, 6), A(xh) is the peak area of compounds tested by HPLC at the indicated time point.
The hydrolysis constants (Kh) were calculated using the following equation: Hydrolysis constant Kh=−ln[100%−Release rate (%)]/t Results

Compound	Hydrolysis constant Kh pH 2.0	Release rate (%) pH 2.0 (6 h)	Hydrolysis constant Kh pH 7.4	Release rate (%) pH 7.4 (0.5 h)	Release rate (%) pH 7.4 (6 h)
Cn1nnc2c(C(=O)NC(=O)Oc3ccc(CC4CCN(C(c5ccccc5)c5ccccc5)CC4)cc3)ncn2c1=O [Example 21, 4-((1-Benzhydrylpiperidin-4-yl)methyl)phenyl (3-methyl-4-oxo-3,4-dihydroimidazo[5,1-d][1,2,3,5]tetrazine-8-carbonyl)carbamate]	<0.001	0%	3.397	81.7%	100%
Cn1nnc2c(C(=O)NCc3ccc(CC4CCN(C(c5ccccc5)c5ccccc5)CC4)cc3)ncn2c1=O [Example 22, N-(4-((1-benzhydrylpiperidin-4-yl)methyl)benzyl)-3-methyl-4-oxo-3,4-dihydroimidazo[5,1-d][1,2,3,5]tetrazine-8-carboxamide]	<0.001	0%	0.267	12.5%	85.4%
COc1cccc2c1C(=O)c1c(O)c3c(c(O)c1C2=O)C[C@@](O)(C(C)=O)C[C@@H]3O[C@H]1C[C@H](NC(=O)Oc2ccc(CN3CCN(C)CC3)cc2)[C@H](OC(C)=O)[C@H](C)O1 [Example 23, (2S,3S,4S,6R)-6-(((1S,3S)-3-acetyl-3,5,12-trihydroxy-10-methoxy-6,11-dioxo-1,2,3,4,6,11-hexahydrotetracen-1-yl)oxy)-2-methyl-4-(((4-((4-methylpiperazin-1-yl)methyl)phenoxy)carbonyl)amino)tetrahydro-2H-pyran-3-yl acetate]	0.004	2.5%	0.149	7.2%	70.8%
CCCCCCOC(=O)OCn1cc(F)c(=O)[nH]c1=O [Example 24, (5-Fluoro-2,4-dioxo-3,4-dihydropyrimidin-1(2H)-yl)methyl hexyl carbonate]	<0.001	0%	0.094	4.6%	55.7%
COc1ccc(OC(=O)OCn2cc(F)c(=O)[nH]c2=O)cc1 [Example 25, (5-Fluoro-2,4-dioxo-3,4-dihydropyrimidin-1(2H)-yl)methyl (4-methoxyphenyl) carbonate]	0.151	40.5%	0.451	20.2%	61.3%
